Test results reported in PMC6934184, “Selective DNA-PKcs inhibition extends the therapeutic index of localized radiotherapy and chemotherapy” (The Journal of Clinical Investigation, 2019).

Molecular target: T1, CAMK4 (CaMKIV) (Homo sapiens, UniProt Q16566)
T1 construct: purchased Thermo Fisher Scientific (Life Technologies) SelectScreen
Experiment: SelectScreen Z'LYTE
Format: biochemical
Procedure, shortened: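 SelectScreen broad panel; activity (Z'LYTE, Adapta) plus binding formats. ATP: Km app for CSF1R Z'LYTE; 10 for CAMK1 Adapta. Readout = % per kinase.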

T1 sequence (Q16566 whole entry): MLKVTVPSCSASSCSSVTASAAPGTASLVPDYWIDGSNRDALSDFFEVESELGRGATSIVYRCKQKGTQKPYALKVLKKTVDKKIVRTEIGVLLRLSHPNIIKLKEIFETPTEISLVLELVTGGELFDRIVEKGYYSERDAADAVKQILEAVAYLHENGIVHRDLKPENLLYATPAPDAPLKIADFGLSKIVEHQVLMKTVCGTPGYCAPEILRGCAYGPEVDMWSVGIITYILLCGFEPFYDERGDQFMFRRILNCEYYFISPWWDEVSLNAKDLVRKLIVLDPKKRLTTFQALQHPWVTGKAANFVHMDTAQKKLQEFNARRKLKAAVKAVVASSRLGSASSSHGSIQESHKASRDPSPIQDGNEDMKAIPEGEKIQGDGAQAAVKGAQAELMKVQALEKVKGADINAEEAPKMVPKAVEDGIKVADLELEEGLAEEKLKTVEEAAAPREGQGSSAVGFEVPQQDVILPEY

Q: With `CN(C(=O)CN1CCOCC1)c1ccc2sc3c(-c4cccc5c(=O)cc(N6CC7CCC(C6)O7)oc45)cccc3c2c1` [NU5455] as the molecule, how does the inhibition at 1 µM read?
A: The inhibition at 1 µM was -10.4%.
